According to the NIST ThermoML archive (doi:10.1021/acs.jced.5b00367):
“And” between values parts separate entries of the source, which are not always exact repeats. Equal entries are not always repeated. ± gives the expanded uncertainty stated by the source.

Assay: wn = mass fraction of the nth substance listed
Details: 101 kPa, Liquid, Alternating current cell with electrodes, w1 = 0.01

CCCCCCCCCCCC[N+](CC)(CC)CCCCCCCCCCCC.[Br-] [didodecyldiethylammonium bromide] + O
electrical conductivity (335.35 K): 0.052 ± 0.021 S/m
electrical conductivity (335.45 K): 0.0521 ± 0.021 S/m
electrical conductivity (335.65 K): 0.0524 ± 0.021 S/m
electrical conductivity (335.75 K): 0.0526 ± 0.021 S/m
electrical conductivity (335.95 K): 0.0528 ± 0.021 S/m
electrical conductivity (336.05 K): 0.0531 ± 0.021 S/m
electrical conductivity (336.15 K): 0.0531 ± 0.021 S/m
electrical conductivity (336.25 K): 0.0532 ± 0.021 S/m
electrical conductivity (336.35 K): 0.0536 ± 0.021 S/m
electrical conductivity (336.45 K): 0.0537 ± 0.021 S/m
electrical conductivity (336.55 K): 0.0539 ± 0.022 S/m
electrical conductivity (336.65 K): 0.0542 ± 0.022 S/m
electrical conductivity (336.75 K): 0.0544 ± 0.022 S/m
electrical conductivity (336.85 K): 0.0545 ± 0.022 S/m
electrical conductivity (336.95 K): 0.0546 ± 0.022 S/m
electrical conductivity (337.05 K): 0.0548 ± 0.022 S/m
electrical conductivity (337.15 K): 0.0549 ± 0.022 S/m
electrical conductivity (337.25 K): 0.0551 ± 0.022 S/m
electrical conductivity (337.35 K): 0.0552 ± 0.022 S/m
electrical conductivity (337.45 K): 0.0553 ± 0.022 S/m
electrical conductivity (337.55 K): 0.0556 ± 0.022 S/m
electrical conductivity (337.65 K): 0.0556 ± 0.022 S/m
electrical conductivity (337.75 K): 0.0558 ± 0.022 S/m
electrical conductivity (337.85 K): 0.0559 ± 0.022 S/m
electrical conductivity (337.95 K): 0.0563 ± 0.023 S/m
electrical conductivity (338.05 K): 0.0564 ± 0.023 S/m
electrical conductivity (338.15 K): 0.0566 ± 0.023 S/m
electrical conductivity (338.25 K): 0.0568 ± 0.023 S/m
electrical conductivity (338.35 K): 0.0569 ± 0.023 S/m
electrical conductivity (338.45 K): 0.0571 ± 0.023 S/m
electrical conductivity (338.55 K): 0.0573 ± 0.023 S/m
electrical conductivity (338.65 K): 0.0575 ± 0.023 S/m
electrical conductivity (338.75 K): 0.0577 ± 0.023 S/m
electrical conductivity (338.85 K): 0.0578 ± 0.023 S/m
electrical conductivity (338.95 K): 0.058 ± 0.023 S/m
electrical conductivity (339.05 K): 0.0583 ± 0.023 S/m
electrical conductivity (339.15 K): 0.0582 ± 0.023 S/m
electrical conductivity (339.25 K): 0.0585 ± 0.023 S/m
electrical conductivity (339.35 K): 0.0587 ± 0.023 S/m
electrical conductivity (339.45 K): 0.0588 ± 0.024 S/m
electrical conductivity (339.55 K): 0.0591 ± 0.024 S/m
electrical conductivity (339.65 K): 0.0592 ± 0.024 S/m
electrical conductivity (339.75 K): 0.0593 ± 0.024 S/m
electrical conductivity (339.85 K): 0.0596 ± 0.024 S/m
electrical conductivity (339.95 K): 0.0598 ± 0.024 S/m
electrical conductivity (340.05 K): 0.06 ± 0.024 S/m
electrical conductivity (340.15 K): 0.0602 ± 0.024 S/m
electrical conductivity (340.25 K): 0.0605 ± 0.024 S/m
electrical conductivity (340.35 K): 0.0606 ± 0.024 S/m
electrical conductivity (340.45 K): 0.0608 ± 0.024 S/m
electrical conductivity (340.55 K): 0.061 ± 0.024 S/m
electrical conductivity (340.65 K): 0.0612 ± 0.024 S/m
electrical conductivity (340.75 K): 0.0614 ± 0.025 S/m
electrical conductivity (340.85 K): 0.0614 ± 0.025 S/m
electrical conductivity (340.95 K): 0.0616 ± 0.025 S/m
electrical conductivity (341.05 K): 0.062 ± 0.025 S/m
electrical conductivity (341.15 K): 0.062 ± 0.025 S/m
electrical conductivity (341.25 K): 0.0622 ± 0.025 S/m
electrical conductivity (341.35 K): 0.0624 ± 0.025 S/m
electrical conductivity (341.45 K): 0.0625 ± 0.025 S/m
electrical conductivity (341.55 K): 0.0627 ± 0.025 S/m
electrical conductivity (341.65 K): 0.0629 ± 0.025 S/m
electrical conductivity (341.75 K): 0.063 ± 0.025 S/m
electrical conductivity (341.85 K): 0.0633 ± 0.025 S/m
electrical conductivity (341.95 K): 0.0633 ± 0.025 S/m
electrical conductivity (342.05 K): 0.0637 ± 0.025 S/m
electrical conductivity (342.15 K): 0.0639 ± 0.026 S/m
electrical conductivity (342.25 K): 0.064 ± 0.026 S/m
electrical conductivity (342.35 K): 0.0642 ± 0.026 S/m
electrical conductivity (342.45 K): 0.0643 ± 0.026 S/m
electrical conductivity (342.55 K): 0.0645 ± 0.026 S/m
electrical conductivity (342.65 K): 0.0649 ± 0.026 S/m
electrical conductivity (342.75 K): 0.0651 ± 0.026 S/m
electrical conductivity (342.85 K): 0.0654 ± 0.026 S/m
electrical conductivity (342.95 K): 0.0656 ± 0.026 S/m
electrical conductivity (343.05 K): 0.0657 ± 0.026 S/m
electrical conductivity (343.15 K): 0.0658 ± 0.026 S/m
electrical conductivity (343.25 K): 0.0662 ± 0.026 S/m
electrical conductivity (343.35 K): 0.0663 ± 0.027 S/m
electrical conductivity (343.45 K): 0.0663 ± 0.027 S/m
electrical conductivity (343.55 K): 0.0664 ± 0.027 S/m
electrical conductivity (343.65 K): 0.0667 ± 0.027 S/m
electrical conductivity (343.75 K): 0.0667 ± 0.027 S/m
electrical conductivity (343.85 K): 0.067 ± 0.027 S/m
electrical conductivity (343.95 K): 0.0674 ± 0.027 S/m
electrical conductivity (344.05 K): 0.0675 ± 0.027 S/m
electrical conductivity (344.15 K): 0.0674 ± 0.027 S/m
electrical conductivity (344.25 K): 0.0677 ± 0.027 S/m
electrical conductivity (344.35 K): 0.0678 ± 0.027 S/m
electrical conductivity (344.45 K): 0.0679 ± 0.027 S/m
electrical conductivity (344.55 K): 0.0679 ± 0.027 S/m
electrical conductivity (344.65 K): 0.068 ± 0.027 S/m
electrical conductivity (344.75 K): 0.0685 ± 0.027 S/m
electrical conductivity (344.85 K): 0.0686 ± 0.027 S/m
electrical conductivity (344.95 K): 0.0689 ± 0.028 S/m
electrical conductivity (345.05 K): 0.0688 ± 0.028 S/m
electrical conductivity (345.15 K): 0.069 ± 0.028 S/m
electrical conductivity (345.25 K): 0.069 S/m and 0.0692 S/m
electrical conductivity (345.35 K): 0.0692 ± 0.028 S/m
electrical conductivity (345.45 K): 0.0694 ± 0.028 S/m
electrical conductivity (345.55 K): 0.0697 ± 0.028 S/m
electrical conductivity (345.65 K): 0.0699 ± 0.028 S/m
electrical conductivity (345.75 K): 0.0699 ± 0.028 S/m
electrical conductivity (345.85 K): 0.07 ± 0.028 S/m
electrical conductivity (345.95 K): 0.0701 ± 0.028 S/m
electrical conductivity (346.05 K): 0.0702 ± 0.028 S/m
electrical conductivity (346.15 K): 0.0704 ± 0.028 S/m
electrical conductivity (346.25 K): 0.0707 ± 0.028 S/m
electrical conductivity (346.35 K): 0.0709 ± 0.028 S/m
electrical conductivity (346.45 K): 0.0708 ± 0.028 S/m
electrical conductivity (346.55 K): 0.0709 ± 0.028 S/m
electrical conductivity (346.65 K): 0.0712 ± 0.028 S/m
electrical conductivity (346.75 K): 0.0712 ± 0.028 S/m
electrical conductivity (346.85 K): 0.0713 ± 0.029 S/m
